Test results from US11472807B2, “Purine derivatives for use as medicament and for use in treating neurodegenerative or neuro-inflammatory disorders” (COMMISSARIAT À L'ENERGIE ATOMIQUE ET AUX ENERGIES …, priority 2017, dated 2022).
Read-outs that look alike come from different tables or passages of the source.

Key:
[1] = Pharmacokinetics of Aftin-5 in mice after single PO or IP dose; format: in vivo; conditions: for Tmax / Cmax / Kp: mouse; for Kp: brain/plasma, read-out: brain/plasma partition coefficient (Kpbrain/plasma)
Description: In addition, pharmacokinetic experiments of Aftin-5 in mice confirmed the ability of the compound to reach the brain. The PK parameters are plotted in Table 3 below.
The brain/plasma partition coefficient (Kpbrain/plasma) was about 0.014 and 0.033 for oral and IP administration, respectively.

[2] = system: Thr231 phosphorylated Tau; test: Tau phosphorylation (Thr231) in neuronal primary cultures (MSD); format: cell-based, mice; conditions: neurons, 50 μM, 100 μM and 150 μM for 18 h
Method: FIG. 7. Plots illustrating the effect of Aftin-5 mediated attenuation of Tau phosphorylation in neuronal primary cultures. Culture media of cortical neurons were replaced by incubation medium containing Aftin-5 at 100 μM (A100) or 150 μM (A150) or vehicle (0.1% DMSO; Control). After 18 h incubation pTau (Thr231) and total Tau were quantified by sandwich immunoassay using the Meso Scale Discovery technology. Different Tau concentrations were expressed versus total proteins concentration. Kruskal-Wallis test and Dunn's Multiple Comparison post-hoc tests were performed and ***p<0.001 indicates significant differences between Aftin-5 and control conditions. Data expressed as means+/−SEM (n=6 wells/condition).
Hippocampi and cortex were dissected in HBSS containing 5 mM glucose (dissection medium). […] Cells were counted and seeded at a density of 22,000 per cm^2 for hippocampal neurons and 10^5 per cm^2 for cortical neurons into 24 wells culture plates (Costar) in plating medium (DMEM medium containing 10% heat-inactivated horse serum (Life Technologies)). […]
Tau and P-Tau in primary rat neurons, organotypic hippocampal slice cultures from wild type (WT) and transgenic Tau mice (3 Tg) after by Aftin-5. Tau was quantified by sandwich immunoassay using the Meso Scale Discovery technologies. […] After a short incubation (5 min) at room temperature, the plate is read on the SECTOR Imager 2400. […]

p-Tau (Thr212) = test: p-Tau (Thr212)/total Tau in rat cortical neurons (western-blot); format: cell-based; conditions: purine derivative 10 μM (A100), 18 h
Method: Cells were lysed in freshly prepared lysis buffer containing in mM: Tris-HCl 50, EDTA 2, EGTA 2, NaCl 100, SDS 0.2%, Triton X-100 1%, proteases inhibitors (Roche Protease Inhibitor Cocktail #04693116001), phosphatases inhibitors (in mM: ammonium molybdate 0.1, β-glycerophosphate 20, NaF 50, Na-pyrophosphate 10, Orthovanadate 1). Protein concentration was measured by the Bradford assay and Laemmli buffer was added to each lysate. Proteins (10 μg per lane) were resolved on 12% Nu-PAGE (LifeTechonoliges #NP0342BOX) using MOPS SDS running buffer and transferred on Immobilon-FL PVDF membrane (Millipore #IPFL00010). Membranes were blocked one hour in TBS Tween20 0.1% BSA 5% at room temperature. Primary antibodies were incubated O/N at 4° C. and detected by Alexa 488 conjugated secondary antibodies (Life Techonologies #A11034 and A11029) diluted 1:1.000 in TBS Tween20 0.05% and 1% BSA. The antibodies specific for pThr212-Tau (Abcam #ab4842), pThr181-Tau (AbCam #ab75679), Tau (Millipore #MAB361), APP (Millipore #07-667) and Actin (Millipore #MAB1501) were diluted in TBS Tween20 0.05% and 1% BSA. Fluorescent signal was visualized with the VersaDoc™ Imaging System (Bio-Rad Laboratories) and quantified with Quantity One® Analysis Software. Grey levels measured for bands of interest were normalized to the corresponding actin bands.
For assessing the protein Tau's phosphorylation, the culture media of rat cortical neurons were replaced by incubation medium containing purine derivatives at 10 μM (A100) or vehicle (0.1% DMSO; Control). After 18 h incubation p-Tau (Thr212) and total Tau were quantified in the cellular extracts by western-blot.

[3] = plasma, IP single dose 10 mg/kg

AUC0-∞ ([1]; brain, IP single dose 10 mg/kg): 441.51 nMh
t^1/2 ([1]; brain, IP single dose 10 mg/kg): 0.6 h
AUC0-∞ ([1]; brain, PO single dose 5 mg/kg): 115.25 nMh
t^1/2 ([1]; brain, PO single dose 5 mg/kg): 1.8 h
Tmax ([1]; brain, IP single dose 10 mg/kg): 4.98 min
Tmax ([1]; brain, PO single dose 5 mg/kg): 15 min
Cmax ([1]; brain, ip, 10 mg/kg, IP single dose 10 mg/kg): ~807 nM
Cmax ([1]; brain, po, 5 mg/kg, PO single dose 5 mg/kg): ~44.9 nM
Kp ([1]; IP administration, single dose 10 mg/kg): ~0.033
Kp ([1]; oral administration, single dose 5 mg/kg): ~0.014
Tmax [1, 3]: 4.98 min
Tmax ([1]; plasma, PO single dose 5 mg/kg): 15 min
Cmax ([1]; plasma, ip, 10 mg/kg, IP single dose 10 mg/kg): 22600 nM
Cmax ([1]; plasma, po, 5 mg/kg, PO single dose 5 mg/kg): 3890 nM
AUC0-∞ [1, 3]: 13577.63 nMh
t^1/2 [1, 3]: ~1.2 h
Structure (SMILES): CC[C@H](CO)Nc1nc(N(C)c2ccccc2)c2ncn(C(C)C)c2n1 [Aftin-5]
Thr231 phosphorylated Tau protein [2]: significant dose dependent decrease
Attenuation of P-Tau/Tau ratio (p-Tau (Thr212)): +(>1 μM) (“+” means that the tested compound shows an anti-inflammatory and/or attenuation of Tau's phosphorylation property with a concentration higher than 1 μM)
